Test system: RAW264.7 macrophages (siLrp8)
Assay: LPS‐induced inflammatory responses in RAW264.7 macrophages (siLrp8) with or without ApoER2 (Lrp8) plasmid
Type: cell-based, mouse
From the text: Further, we tracked the dynamic changes of inflammatory responses in mouse RAW264.7 macrophages (with Lrp8 silencing for shielding the influence of endogenous ApoER2). The RAW264.7 macrophages (siLrp8) were transfected with plasmids encoding ApoER2 (Lrp8) or vector, followed by treatment with recombinant mouse sclerostin and induction with LPS for varying durations. In detail, RAW 264.7 macrophages (siLrp8) were divided into 7 groups (n = 3 per group), including (1) Control, (2) LPS, (3) LPS + SOST, (4) Lrp8 + LPS + SOST 250 nM, (5) Lrp8 + LPS + SOST 500 nM, (6) Lrp8 + LPS + SOST 1 µM, and (7) Lrp8 + LPS. Cells in group (4–7) were transfected with plasmids encoding mouse ApoER2 (Lrp8), while cells in group (1–3) were transfected with vector. Twenty four hours later, cells in groups (3), (4), (5), and (6) were treated with recombinant mouse sclerostin at concentration of 1 µM, 250 nM, 500 nM, and 1 µM for 3 h, respectively, while cells in groups (1), (2), and (7) were treated with vehicle.^[ [35] ^] Then, cells in group (2‐7) were treated with LPS (1 µg/mL) for 18 h. All groups of cell lysates were collected for determining the mRNA expression levels of mouse TNF‐α, mouse MCP‐1, and mouse IL‐10 by RT‐PCR. Given the significant efficacy of recombinant mouse sclerostin at a concentration of 1 µM in mouse macrophages, 1 µM was selected for the subsequent studies.
Then, the protein expression/secretion levels of pro‐inflammatory/anti‐inflammatory cytokines and chemokines, macrophage conversion, NF‐κB subcellular localization, phosphorylation, and expression were determined. In detail, RAW 264.7 cells (siLrp8) were divided into 5 groups (n = 3 per group), including (1) Control, (2) LPS, (3) LPS + SOST, (4) Lrp8 + LPS + SOST, and (5) Lrp8 + LPS. RAW 264.7 cells in groups (4) and (5) were transfected with plasmids encoding mouse ApoER2 (Lrp8), while cells in group (1‐3) were transfected with vector. Twenty four hours later, cells in groups (3) and (4) were treated with recombinant mouse sclerostin (SOST, 1 µM) for 3 h, while cells in groups (1), (2), and (5) were treated with vehicle.^[ [35] ^] Then, cells in groups (2), (3), (4), and (5) were treated with LPS (1 µg/mL) for 12 and 18 h. Cell mediums were collected for determining the protein expression/secretion levels of mouse TNF‐α, mouse MCP‐1, and mouse IL‐10 by ELISA.^[ [34] ^] The CD206^+ macrophages and CD11b^+ macrophages were determined by flow cytometry.^[ [36] ^]
Additionally, for the determination of NF‐κB (p65) nuclear translocation, macrophages in groups (3) and (4) were treated with recombinant mouse sclerostin (SOST, 1 µM) overnight, then macrophages in groups (2), (3), (4), and (5) were treated with LPS (1 µg/mL) for 15 and 30 min. The NF‐κB (p65) nuclear translocation in macrophages was examined under microscope, after LPS induction for 15 min.^[ [37] ^] The protein level of NF‐κB (p65) in nuclear and cytoplasm was determined by western blot assay, after LPS induction for 30 min.^[ [38] ^]
Subsequently, for the determination of NF‐κB phosphorylation, macrophages in groups (3) and (4) were treated with recombinant mouse sclerostin (SOST, 1 µM) overnight, then macrophages in groups (2), (3), (4), and (5) were treated with LPS (1 µg/mL) for 6 h. The protein level of phospho‐NF‐κB (p‐p65) was determined by western blot assay, followed by calculating the proportion of p‐p65/total p65 in cells.^[ [39] ^] At the same time, the mRNA expression level of NF‐κB (p65) was determined by RT‐PCR.^[ [40] ^] […]
Total RNA was extracted from cells following the protocols of Trizol reagent (Invitrogen, 15 596 026). Reverse‐transcription was performed to obtain cDNA using HiScript III RT SuperMix kit (Vazyme, R323), and RT‐PCR was accomplished using a HiScript III RT SuperMix kit (Vazyme, R323) in a QuantStudio 7 PRO System (Applied Biosystems). The relative gene expression levels were calculated using the 2^−ΔΔCt method with GAPDH as the reference gene.^[ [40] ^] […]

[1] = 1 µM, ApoER2‐overexpressing macrophages versus LPS+SOST or Lrp8+LPS, LPS 18 h, ELISA
[2] = 1 µM, ApoER2‐overexpressing macrophages, LPS 30 min, western blot
[3] = 1 µM, ApoER2‐overexpressing, versus LPS group, P < 0.01, LPS 18 h
[4] = Lrp8+LPS+SOST 250 nM, 500 nM, 1 µM versus LPS+SOST or Lrp8+LPS, LPS 18 h, RT‐PCR

## sclerostin: recombinant human/mouse full‐length sclerostin protein
1 µM overnight, ApoER2‐overexpressing macrophages, LPS 15 min, immunofluorescence
  NF‐κB nuclear translocation: significantly lower
[1]
  Medium protein level of IL‐10: significantly higher
  Medium protein levels of TNF‐α and MCP‐1: significantly lower
1 µM, ApoER2‐overexpressing macrophages, LPS 12 and 18 h, flow cytometry
  Proportion of anti‐inflammatory phenotype (CD206^+): significantly higher
[2]
  p65 protein level in the cytoplasmic fraction: elevation
  p65 protein level in the nuclear fraction: reduction
1 µM, ApoER2‐overexpressing macrophages, LPS 6 h, RT‐PCR
  mRNA expression level of NF‐κB (p65): significantly lower
1 µM, ApoER2‐overexpressing macrophages, LPS 6 h, western blot
  Protein level of phospho‐NF‐κB (p‐p65): significantly lower
[3]
  mRNA expression of MCP‐1: significantly suppressed
  mRNA expression of TNF‐α: significantly suppressed
1 µM, ApoER2‐overexpressing, versus LPS group, P < 0.05, LPS 18 h
  mRNA expression of IL‐10: significantly promoted
[4]
  mRNA expression level of IL‐10: dose‐dependently higher
  mRNA expression levels of TNF‐α and MCP‐1: dose‐dependently lower
RAW264.7 (siLrp8) without ApoER2 plasmid, sclerostin 1 µM, LPS 1 µg/mL for varying durations
  Cytokine/chemokine mRNA and medium protein, macrophage phenotype proportions, NF‐κB nuclear translocation/phosphorylation/mRNA: LPS+SOST versus LPS: no significant differences
